Experimental data: patent US20190225989A1, “GENE KNOCKIN METHOD AND KIT FOR GENE KNOCKIN” (Institute of Hematology and Blood Disease Hospital, CAMS & …, priority 2018, published 2019)

Experiments:
Format in all cases: cell-based, human
[1] = tested on: CTNNB1 locus in iPSCs; test: Effects of small molecules and factors on HDR efficiency, FACS; details: for effect on HDR efficiency at the CTNNB locus: donor pD-mNeonGreen-sg-HA300-300 bp, added first 24 h: RS-1 10 μM, Nu7441 2 μM, SCR7 1 μM, Brefeldin A 0.1 μM, L755507 5 μM
Excerpt: (§1) In this experiment, the verified highly efficient pD-sg-HA300-300 bp double cut donor and multiple small molecules were used to examine the effects on HDR of both the CTNNB1 and PRDM14 loci in iPSCs. Multiple small molecules include RS-1 (a stimulator of human homologous recombination protein RAD51), NU7441 (a DNA-PKcs inhibitor), SCR7 (a DNA ligase IV inhibitor), Brefeldin A, L755507, and
(§2) iPSCs were evenly split into eight wells after nucleofection with Cas9/sgRNA and the relevant double cut donor (pD-mNeonGreen-sg-HA300-300 bp or pD-GFP-sg-HA300-300 bp). DMSO control (0.1%), RS-1 (10 μM), Nu7441 (2 μM), SCR7 (1 μM), Brefeldin A (0.1 μM), L755507 (5 μM), Nocodazole (100 ng/mL), or Nu7441 (2 μM) and SCR7 (1 μM) were added in the wells for the first 24 h and then the medium was changed with fresh medium thereafter. Three days after nucleofection, cells were harvested for FACS analysis to determine the HDR efficiency in each condition.
(§3) The plasmid encoding RAD51, Ad4E1B-Eorf46, or CCND1 was co-transfected with Cas9, sgRNA, and donor plasmid (pD-mNeonGreen-sg-HA300-300 bp or pD-GFP-sg-HA300-300 bp). Three days after transfection, cells were harvested for FACS analysis to determine the HDR efficiency in each condition.
(§4) In this experiment, CCND1 and Nocodazole were used together to examine the effects on HDR of both the CTNNB1 and PRDM14 loci in iPSCs. The plasmid encoding CCND1 was co-transfected with Cas9, sgRNA, and donor plasmid (pD-mNeonGreen-sg-HA300-300 bp or pD-GFP-sg-HA300-300 bp). Nocodazole (100 ng/mL) was added into the medium at 0-24 h after transfection. Three days after incubation, cells were harvested for FACS analysis to determine the HDR efficiency in each condition.

[2] = tested on: PRDM14 locus in iPSCs; test: as above
Excerpt: as §1, §2, §3, §4

[3] = tested on: CTNNB1 locus in the H1 ES cells; test: Effects of small molecules on HDR efficiency, FACS; details: FACS day 3; for effect on HDR efficiency at the CTNNB locus: donor pD-mNeonGreen-sg-HA300-300 bp, added first 24 h: RS-1 10 μM, Nu7441 2 μM, SCR7 1 μM, Brefeldin A 0.1 μM, L755507 5 μM
Experimental: as §2, with “In this experiment, the H1 ES cells” for “iPSCs”

[4] = tested on: PRDM14 locus in the H1 ES cells; test: Effects of small molecules on HDR efficiency, FACS; details: FACS day 3; for effect on HDR efficiency at the PRDM14 locus: donor pD-GFP-sg-HA300-300 bp, added first 24 h: RS-1 10 μM, Nu7441 2 μM, SCR7 1 μM, Brefeldin A 0.1 μM, L755507 5 μM
Experimental: as §2, with “In this experiment, the H1 ES cells” for “iPSCs”

[5] = tested on: CTNNB1 locus in iPSCs; test: sgRNA cleavage efficiency at CTNNB1; details: targets 39 bp before the stop codon, data not shown
[6] = tested on: PRDM14 locus in iPSCs; test: sgRNA cleavage efficiency at PRDM14; details: cleavage site 4 bp downstream of the stop codon, data not shown
[7] = donor pD-GFP-sg-HA300-300 bp, added first 24 h: RS-1 10 μM, Nu7441 2 μM, SCR7 1 μM, Brefeldin A 0.1 μM, L755507 5 μM, FACS day 3, vs DMSO
[8] = Nocodazole 100 ng/mL first 24 h, FACS day 3, vs DMSO, P<0.001
[9] = Nocodazole 100 ng/mL first 24 h

## CCCCCCNC(=O)Nc1ccc(S(=O)(=O)Nc2ccc(CCNC[C@H](O)COc3ccc(O)cc3)cc2)cc1 [L755507]
[1]; FACS day 3, vs DMSO
  effect on HDR efficiency at the CTNNB locus: did not show significant improvement
[2]; [7]
  effect on HDR efficiency at the PRDM14 locus: did not show significant improvement
[3]
  effect on HDR efficiency at the CTNNB locus: did not show significant improvement
[4]
  effect on HDR efficiency at the PRDM14 locus: did not show significant improvement

## sgCTNNB1: sgRNA targeting 39 bp before the CTNNB1 stop codon, GCTGATTGCTGTCACCTGG (SEQ ID NO: 5) (listed as DNA, chemistry not given here)
[5]
  cleavage efficiency: 60%

## COC(=O)Nc1nc2ccc(C(=O)c3cccs3)cc2[nH]1 [Nocodazole]
[1]; [8]
  increase of HDR efficiency at the CTNNB locus: ~50%
[2]; [8]
  increase of HDR efficiency at the PRDM14 locus: ~50%
[3]; [9]
  increase of HDR efficiency at the CTNNB locus: ~50%
[4]; [9]
  increase of HDR efficiency at the PRDM14 locus: ~50%

## O=C(Nc1ccc(Br)cc1)c1ccc(Br)c(S(=O)(=O)NCc2ccccc2)c1 [RS-1]
[1]; FACS day 3, vs DMSO
  effect on HDR efficiency at the CTNNB locus: did not show significant improvement
[2]; [7]
  effect on HDR efficiency at the PRDM14 locus: did not show significant improvement
[3]
  effect on HDR efficiency at the CTNNB locus: did not show significant improvement
[4]
  effect on HDR efficiency at the PRDM14 locus: did not show significant improvement

## O=c1[nH]c(=S)[nH]c(N=Cc2ccccc2)c1N=Cc1ccccc1 [SCR7]
[1]; FACS day 3, vs DMSO
  effect on HDR efficiency at the CTNNB locus: did not show significant improvement
[2]; [7]
  effect on HDR efficiency at the PRDM14 locus: did not show significant improvement
[3]
  effect on HDR efficiency at the CTNNB locus: did not show significant improvement
[4]
  effect on HDR efficiency at the PRDM14 locus: did not show significant improvement

## sgPRDM14: sgRNA targeting the sequence surrounding the PRDM14 stop codon, GAAGACTACTAGCCCTGCC (SEQ ID NO: 11) (listed as DNA, chemistry not given here)
[6]
  cleavage efficiency: ~30%

## O=c1cc(N2CCOCC2)oc2c(-c3cccc4c3sc3ccccc34)cccc12 [Nu7441, NU7441]
[1]; FACS day 3, vs DMSO
  effect on HDR efficiency at the CTNNB locus: less pronounced improvement
[2]; [7]
  effect on HDR efficiency at the PRDM14 locus: only at the CTNNB locus
[3]
  effect on HDR efficiency at the CTNNB locus: less pronounced improvement
[4]
  effect on HDR efficiency at the PRDM14 locus: only at the CTNNB locus

## C[C@H]1CCC/C=C/[C@@H]2C[C@H](O)C[C@H]2[C@H](O)/C=C/C(=O)O1 [Brefeldin A]
[1]; FACS day 3, vs DMSO
  effect on HDR efficiency at the CTNNB locus: less pronounced improvement
[2]; [7]
  effect on HDR efficiency at the PRDM14 locus: only at the CTNNB locus
[3]
  effect on HDR efficiency at the CTNNB locus: less pronounced improvement
[4]
  effect on HDR efficiency at the PRDM14 locus: only at the CTNNB locus

B1: RAD51: key factor in the homologous recombination pathway, given as EF1-driven expression plasmid (protein, UniProt Q06609 2-339, looked up)
DNA repair protein RAD51 …: AMQMQLEANADTSVEEESFGPQPISRLEQCGINANDVKKLEEAGFHTVEAVAYAPKKELINIKGISEAKADKILAEAAKLVPMGFTTATEFHQRRSEIIQITTGSKELDKLLQGGIETGSITEMFGEFRTGKTQICHTLAVTCQLPIDRGGGEGKAMYIDTEGTFRPERLLAVAERYGLSGSDVLDNVAYARAFNTDHQTQLLYQASAMMVESRYALLIVDSATALYRTDYSGRGELSARQMHLARFLRMLLRLADEFGVAVVITNQVVAQVDGAAMFAADPKKPIGGNIIAHASTTRLYLRKGRGETRICKIYDSPCLPEAEAMFAINADGVGDAKD
modifications: expressed from EF1 plasmid
[1]; expression plasmid co-transfected with Cas9, sgRNA and pD-mNeonGreen-sg-HA300-300 bp, FACS day 3, P<0.001
  effect on HDR efficiency at the CTNNB1 locus: significantly decreased
[2]; expression plasmid co-transfected with Cas9, sgRNA and pD-GFP-sg-HA300-300 bp, FACS day 3, P<0.001
  effect on HDR efficiency at the PRDM14 locus: significantly decreased
